Measurements published in patent US20210274789A1, “Antimicrobial Surface Treatment” (Kode Biotech Limited, priority 2018, published 2021).

What was measured:
Type in all cases: cell-based
Escherichia coli [1] = assay: Growth on bandage substrate treated with crystal violet alone or with a construct, resazurin colour change; design: key: No growth: dark blue (no growth); Reduced growth: purple (reduced growth); Growth: light red (growth); conditions: crystal violet alone
Experimental: (§1) Swatches (1 cm diameter circular disks) were cut from the fabric portion of commercially available adhesive bandages (BAND-AID™ Quilt-Aid Technology, Johnson & Johnson). Volumes of 50 μL were dispended onto the surface of the swatches and the swatches allowed to air dry undisturbed at 80° C. The volumes consisted of dispersions or solutions in deionized water of 0.04% (w/v) crystal violet, 0.25 mM or 0.13 mM of the construct designated FSL-Se or the construct designated FSL-0, or water alone. A further volume of 100 μL of 0.04% (w/v) crystal violet in deionized water was dispensed onto the surface of the dried treated swatches and incubated undisturbed at room temperature for 10 minutes before rinsing as before with sterile deionized water.
(§2) Frozen stock cultures of bacterial isolates (Staphylococcus aureus, Staphylococcus epidermis, Escherichia coli or Pseudomonas aeruginosa) were streaked on Columbia sheep blood agar plates (Fort Richard Laboratories) and the plates incubated at 37° C. for 24 hours when separate colonies had developed. Two to three colonies were then transferred to a volume of 10 mL of 21 g/L Muller-Hinton (MH) broth, vortexed and the turbidity measured at 600 nm. The MH broth was diluted with a further volume so that the turbidity provided an optical density of 0.20 for the suspensions of Staphylococcus aureus and Staphylococcus epidermis and 0.08 for the suspensions of Escherichia coli and Pseudomonas aeruginosa. The diluted suspensions (around 10^8 cfu/mL) were serially diluted.
(§3) Individual treated swatches from each treatment group were placed at the base of separate wells in a 96-well cell culture plate. Volumes of 10 μL of serial dilutions of the suspensions of bacteria were dispensed onto the surface of the swatches (excluding the negative control). The inoculated swatches were then incubated undisturbed at room temperature for 10 minutes before dispensing into each well a volume of 50 μL of sterile deionized water and 150 μL of MH broth containing 0.02% resazurin sodium salt (Sigma-Aldrich).
(§4) The colour change (if any) observed in each well was observed after incubation of the plate for 24 hours at 37° C. Observations are recorded in Tables 1, 2, 3 and 4.

Pseudomonas aeruginosa [2] = assay: as above; design: key: No growth: dark blue (no growth); Reduced growth: purple (reduced growth); Growth: light red (growth); conditions: crystal violet alone
Experimental: as §1, §2, §3, §4

Staphylococcus aureus [3] = assay: as above; design: key: No growth: dark blue (no growth); Reduced growth: purple (reduced growth); Growth: light red (growth)
Experimental: as §1, §2, §3, §4

Escherichia coli [4] = assay: AgNP augmented antibacterial surface treatment of adhesive bandage swatches, resazurin; design: key: Growth: growth (growth); Inhibition: inhibition of growth (inhibition); No growth: prevention of growth (no growth); conditions: 37° C. for 24 hours, duplicate swatches
Experimental: (§5) Preparation of negatively charged silver nanoparticles Negatively charged nanoparticles of silver (AgNPs) were prepared according to the following method. Quantities of 2 g glucose and 1 g polyvinylpyrrolidone (PVP) were dissolved in water and the resultant volume heated to 90° C. A quantity of 0.5 g of silver nitrate (AgNO3) was dissolved in a separate volume of 1 mL water and the two volumes then rapidly mixed. The mixed volume was maintained at a temperature of 90° C. for a period of time of one hour before cooling to room temperature. The AgNPs were collected by repeated (3 times) centrifugation at 14,000 rpm for a period of time of 60 minutes and resuspension in deionised filtered water (Milli-Q) to remove excess oxidation products, PVP and silver ion (Ag^+). The washed suspension of AgNPs was stored in the dark at 4° C. The AgNPs were characterised by […] dispersive spectroscopy (EDS) and UV-Vis absorbance scanning.
(§6) Swatches (5×5 mm squares) were cut from the fabric portion of commercially available adhesive bandages (BAND-AID™, Quilt-Aid Technology, Johnson & Johnson). A volume of 50 μL of a 0.13 mM dispersion of one of the following constructs was pipetted onto the surface of a swatch: FSL-biotin, FSL-0, FSL-HA17 kDa, FSL-Se and FSL-spm.
(§7) The swatches were air-dried at a temperature of 80° C. prior to washing (3 times) with sterile, filtered, deionised water (Milli-Q).
(§8) Controls were prepared without contacting the swatches with constructs or without washing following contacting the swatches with construct. Individual treated squares (including controls) were placed in the bottom of individual wells of a 96-well plate and inoculated with a volume of 10 μL of a serial dilution of a log phase culture in Mueller Hinton (MH) broth of one of the following bacteria: • Staphylococcus aureus • Staphylococcus epidermis • Escherichia coli • Pseudomonas aeruginosa
(§9) The inoculated swatches were then incubated for 10 minutes before dispensing into each well of the plate a volume of 50 μL of sterile, filtered, deionised water (Milli-Q) and 150 μL of MH broth containing 0.00266% (w/v) resazurin and incubating for a period of time of 24 hours at a temperature of 37° C. The observations of resulting growth (as indicated by a colour change from blue to red) from the estimated bacterial load (2.5×10^4 or 2.5×10^6 colony forming units (cfu)) for each treatment and species of bacterium are recorded in Tables 5 to 8.

Pseudomonas aeruginosa [5] = assay: as above; design: key: Growth: growth (growth); Inhibition: inhibition of growth (inhibition); No growth: prevention of growth (no growth); conditions: 37° C. for 24 hours, duplicate swatches
Experimental: as §5, §6, §7, §8, §9

Staphylococcus aureus [6] = assay: as above; design: key: Growth: growth (growth); Inhibition: inhibition of growth (inhibition); No growth: prevention of growth (no growth); conditions: 37° C. for 24 hours, duplicate swatches
Experimental: as §5, §6, §7, §8, §9

Staphylococcus epidermis [7] = assay: as above; design: key: Growth: growth (growth); Inhibition: inhibition of growth (inhibition); No growth: prevention of growth (no growth); conditions: 37° C. for 24 hours, duplicate swatches
Experimental: as §5, §6, §7, §8, §9

Staphylococcus epidermis [8] = assay: Growth on bandage substrate treated with crystal violet alone or with a construct, resazurin colour change; design: key: No growth: dark blue (no growth); Reduced growth: purple (reduced growth); Growth: light red (growth); conditions: 0.25 mM construct in combination with crystal violet
Experimental: as §1, §2, §3, §4

[9] = challenge 1.5 × 10^4 to 10^5 cfu
[10] = unwashed following application of the FSL construct, load 1.99 × 10^4 cfu
[11] = unwashed following application of the FSL construct, load 1.99 × 10^6 cfu
[12] = washed following application of the FSL construct, load 1.99 × 10^4 cfu
[13] = washed following application of the FSL construct, load 1.99 × 10^6 cfu
[14] = unwashed following application of the FSL construct, load 1.75 x 10^4 cfu
[15] = unwashed following application of the FSL construct, load 1.75 × 10^6 cfu
[16] = washed following application of the FSL construct, load 1.75 x 10^4 cfu
[17] = washed following application of the FSL construct, load 1.75 x 10^6 cfu
[18] = unwashed following application of the FSL construct, load 2.53 × 10^4 cfu
[19] = unwashed following application of the FSL construct, load 2.53 × 10^6 cfu
[20] = washed following application of the FSL construct, load 2.53 × 10^4 cfu
[21] = washed following application of the FSL construct, load 2.53 × 10^6 cfu
[22] = unwashed following application of the FSL construct, load 2.11 × 10^4 cfu
[23] = unwashed following application of the FSL construct, load 2.11 × 10^6 cfu
[24] = washed following application of the FSL construct, load 2.11 × 10^4 cfu
[25] = washed following application of the FSL construct, load 2.11 × 10^6 cfu

Compound | Observations of growth, inhibition of growth or prevention of growth (Escherichia coli [4]; [10]) | Observations of growth, inhibition of growth or prevention of growth (Escherichia coli [4]; [11]) | Observations of growth, inhibition of growth or prevention of growth (Escherichia coli [4]; [12]) | Observations of growth, inhibition of growth or prevention of growth (Escherichia coli [4]; [13]) | Observations of growth, inhibition of growth or prevention of growth (Pseudomonas aeruginosa [5]; [14]) | Observations of growth, inhibition of growth or prevention of growth (Pseudomonas aeruginosa [5]; [15]) | Observations of growth, inhibition of growth or prevention of growth (Pseudomonas aeruginosa [5]; [16]) | Observations of growth, inhibition of growth or prevention of growth (Pseudomonas aeruginosa [5]; [17]) | Observations of growth, inhibition of growth or prevention of growth (Staphylococcus aureus [6]; [18]) | Observations of growth, inhibition of growth or prevention of growth (Staphylococcus aureus [6]; [19]) | Observations of growth, inhibition of growth or prevention of growth (Staphylococcus aureus [6]; [20]) | Observations of growth, inhibition of growth or prevention of growth (Staphylococcus aureus [6]; [21]) | Observations of growth, inhibition of growth or prevention of growth (Staphylococcus epidermis [7]; [22]) | Observations of growth, inhibition of growth or prevention of growth (Staphylococcus epidermis [7]; [23]) | Observations of growth, inhibition of growth or prevention of growth (Staphylococcus epidermis [7]; [24]) | Observations of growth, inhibition of growth or prevention of growth (Staphylococcus epidermis [7]; [25]) | other results
CN(C)c1ccc(C(=C2C=CC(=[N+](C)C)C=C2)c2ccc(N(C)C)cc2)cc1.[Cl-] [Crystal violet, N-[4-[bis[4-(dimethylamino)phenyl]methylene]-2,5-cyclohexadien-1-ylidene]-N-methyl-methanaminium chloride] | Growth | Growth | Growth | Growth | Growth | Growth | Growth | Growth | Growth | Growth | Growth | Growth | Inhibition | Growth | Inhibition | Growth | Growth monitored by colour change of resazurin containing MH broth (Escherichia coli [1]; [9]): Growth; Growth monitored by colour change of resazurin containing MH broth (Escherichia coli [1]; challenge 5 × 10^3 to 10^4 cfu): Growth; Growth monitored by colour change of resazurin containing MH broth (Escherichia coli [1]; challenge 500 to 1,000 cfu): Growth; Growth monitored by colour change of resazurin containing MH broth (Escherichia coli [1]; challenge >10^5 cfu): Growth; Growth monitored by colour change of resazurin containing MH broth (Pseudomonas aeruginosa [2]; [9]): Growth; Growth monitored by colour change of resazurin containing MH broth (Pseudomonas aeruginosa [2]; challenge 5 × 10^3 to 10^4 cfu): Growth; Growth monitored by colour change of resazurin containing MH broth (Pseudomonas aeruginosa [2]; challenge 10^3 to 5 × 10^3 cfu): Growth; Growth monitored by colour change of resazurin containing MH broth (Pseudomonas aeruginosa [2]; challenge <500 cfu): Growth; Growth monitored by colour change of resazurin containing MH broth (Pseudomonas aeruginosa [2]; challenge >10^5 cfu): Growth; Growth monitored by colour change of resazurin containing MH broth (Staphylococcus aureus [3]; crystal violet alone, challenge 500 to 1,000 cfu): No growth
NCSeCH2CO-CMG(2)-Ad-DOPE [FSL-Se] | Growth | Growth | Growth | Growth | Growth | Growth | Growth | Growth | Growth | Growth | Growth | Growth | Growth | Growth | Growth | Growth | Growth monitored by colour change of resazurin containing MH broth (Staphylococcus aureus [3]; 0.25 mM construct in combination with crystal violet, challenge 1.5 × 10^4 to 10^5 cfu): No growth; Growth monitored by colour change of resazurin containing MH broth (Staphylococcus aureus [3]; 0.25 mM construct in combination with crystal violet, challenge 10^3 to 5 × 10^3 cfu): No growth; Growth monitored by colour change of resazurin containing MH broth (Staphylococcus aureus [3]; 0.25 mM construct in combination with crystal violet, challenge >10^5 cfu): No growth; Growth monitored by colour change of resazurin containing MH broth (Staphylococcus epidermis [8]; challenge 10^3 to 5 × 10^3 cfu): No growth; Growth monitored by colour change of resazurin containing MH broth (Staphylococcus epidermis [8]; challenge 10^4 to 1.5 × 10^4 cfu): No growth; Growth monitored by colour change of resazurin containing MH broth (Staphylococcus epidermis [8]; challenge >10^5 cfu): No growth
